Where only a bound is given, the exact number is not on record here.

Assay [1] has as its system SKNO-1 cells. The assay can be described thus: Xenotransplantation of pre-treated SKNO-1 cells in SCID mice. It counts as in vivo, mouse. The conditions noted are these: cells treated in vitro with 25 μM for four days, injected subcutaneously, versus untreated cells.
Protocol: The effect of the inhibition of NHR2 tetramerization was measured in a mouse model (xenotransplantation of SKNO-1 and K562 cells in SCID mice).
(§2) For the experiment, the SCID- or SCUD-gamma chain mouse model was used. The experiment investigates if the transplantation of the AML cell line SKNO-1 after treatment with either 7.44 or 7.38 leads to reduced tumor growth. […] For this, the cells were treated in vitro with 25 μM of the respective compound for four days. Furthermore, untreated SKNO-1 and CML cell lines were used. […] At day 5 the number of living cells was determined, and 5×10^5 SKNO-1 cells or 5×10^5 K562 cells were injected per transplant. Per mouse, untreated and treated cells were injected into the left and right flank, respectively.
For determining the tumor volume, the length and the width of the tumor was measured twice weekly, starting one week after the transplantation (FIGS. 5A and 5B). […] At the end of the experiment, the tumors were freed and weighed (FIGS. 5C and 5D).
Assay [2] deals with SKNO-1 cells. The assay can be described thus: FACS analysis of CD11b expression, SKNO-1 cells. It counts as cell-based. The conditions noted are these: 25 μM for four days, at the day of injection. Background: A flow cytometer gives signals particle by particle.
Protocol: as §2
At the day of injection, the expression of the surface marker CD11b, a measure for cell differentiation, was determined (FIG. 5E) as was the rate of apoptosis (FIG. 5F).
Assay [3] concerns the target T1, RUNX1-NHR2 protein (Homo sapiens, UniProt Q01196+Q06455).
T1 construct: the wild type NHR2 tetramerization domain or the homologous BCR tetramerization domain (highlighted) are optionally enclosed by an N-terminal RUNX1 domain; His6 (C); made in house; host or cells: E. coli BL21(DE3)
Kind of assay: ABCD (avidin, biotin, complex, DNA) assay with RUNX1-NHR2 protein. The conditions noted are these: relative inhibition at 1 mM inhibitor concentration; RUNX1-NHR2 protein; read-out: ABCD Inhibition [%] NHR2. It counts as biochemical. As to the method: (§1) Oligonucleotides were annealed to the corresponding unmodified antisense oligonucleotide to generate the RUNX1 binding site. Purified RUNX1 proteins were pre-incubated with a compound for 1 h at 4° C. Similarly the biotinylated double-stranded oligonucleotides were pre-incubated with streptavidin coated magnetic beads (Dynabeads M-280 Streptavidin, Invitrogen) for 1 h at 4° C. Protein/compound samples and beads with bound oligonucleotide were incubated in binding buffer (25 mM HEPES, pH 7.5, 50 mM KCl, 1 mM EDTA, pH 8.0, 10 mM MgCl2, 5% glycerol, 1 mM DTT) in the presence of 2% IGEPAL CA-630, 1 μg of salmon sperm, and 0.1% BSA for […]. After washing three times, the bound proteins were eluted from beads in SDS-PAGE sample buffer and resolved on SDS-PAGE followed by immunoblotting with a primary anti-myc (9E10, Santa Cruz) antibody and a secondary HRP-coupled antibody (goat anti-mouse IgG-HRP, Santa Cruz).

The target of assay [4] is T1, RUNX1-NHR2 protein. The assay can be described thus: ELISA: tetramer-dependent binding of RUNX1-NHR2 protein to immobilized RUNX3 oligonucleotide. It counts as biochemical. The protocol: Preferably, for enzyme-linked immunosorbent assays (ELISA), wells of a 96 well plate were coated with 100 ng streptavidin (Dianova) in PBS over night at 4° C. […] Binding of RUNX1-containing proteins to the R3 oligonucleotide was detected with a primary anti-myc antibody (9E10, Santa Cruz) and a secondary HRP-coupled antibody (donkey anti-mouse IgG-HRP, Santa Cruz). ELISA was developed using the Sure Blue TMB Microwell Peroxidase substrate (KLP), and the reaction was stopped with sulfuric acid (1 N). Absorption at 450 nm and 650 nm was measured with the Spectra Max 340, Molecular Devices. Preferably, the ELISA assay is as further described in the experimental section.
The inhibition of NHR2 tetramerization was measured in vitro by tetramer-dependent binding of a RUNX1-NHR2 protein construct to an immobilized oligonucleotide derived from the RUNX3 promoter sequence in ELISA and ABCD assays. […] Furthermore, the influence of the inhibitors on the viability of RUNX1/ETO-dependent SKNO-1 cells was determined; as a control RUNX1/ETO-independent U937 cells were used.
The principle of the biochemical assays for measuring inhibition of NHR2 tetramerization is illustrated in FIG. 1. NHR2 tetramerization and its inhibition was measured in a purpose-built sandwich ELISA (enzyme-linked immunosorbent assay: FIG. 1A). • i) The RUNX1-NHR2 tetramer specifically binds to the biotinylated RUNX3-oligonucleotide (RUNX3-oligo^bio) that is immobilized on a streptavidine coated surface (SA). Disrupting the RUNX1-NHR2 tetramer into dimers leads to a release of the RUNX1-NHR2 protein from the surface. Antibody-conjugated horseradish peroxidase (HRP) binds to a primary anti-myc antibody (α-myc AB) that binds to the immobilized myc-labeled RUNX1-NHR2 tetramer. HRP catalyzes the conversion of 3,3′,5,5′-tetramethylbenzidine (TMB) to 3,3′,5,5-tetramethylbenzidine diimine.
Wells of a 96 well plate were coated with 100 ng streptavidin (Dianova) in PBS over night at 4° C. […] RUNX1-containing proteins were incubated with synthetic peptides or chemical compounds in binding buffer (25 mM HEPES, pH 7.5, 50 mM KCl, 1 mM EDTA, pH 8.0, 10 mM MgCl2, 5% glycerol, 1 mM DTT) in the presence of 1 μg salmon sperm and 1% IGEPAL CA-630 for 5 h and subsequently added to the streptavidin-bound R3 oligonucleotide for 15 min on the 96 well plate. Binding of RUNX1-containing proteins to the R3 oligonucleotide was detected with a primary anti-myc antibody (9E10, Santa Cruz) and a secondary HRP-coupled antibody (donkey anti-mouse IgG-HRP, Santa Cruz). ELISA was developed using the Sure Blue TMB Microwell Peroxidase substrate (KLP), and the reaction was stopped with sulfuric acid (1 N). Absorption at 450 nm and 650 nm was measured with the Spectra Max 340, Molecular Devices.
In general terms: ELISA stands for enzyme-linked immunosorbent assay.

Assay [5] relates to SKNO-1 cells. The assay can be described thus: Cell survival assay (XTT), RUNX1/ETO-dependent SKNO-1 cells. Format: cell-based. The conditions noted are these: daily treated with 1 μM or 10 μM; XTT at days 3, 5, and 7.
Protocol: Cell proliferation and viability were measured with the cell proliferation kit II (XTT, Roche Applied Science). The XTT assay was performed at days 3, 5, and 7. […] SKNO-1 cells were cultured in RPMI 1640+10% FCS and 7 ng ml^−1 human GM-CSF. […] Cell proliferation and viability were measured with the cell proliferation kit II (XTT, Roche Applied Science). 3000 cells per well were cultured in a 96 well plate and daily treated with compounds at different concentrations. The XTT assay was performed at days 3, 5, and 7.
The target of the next assay is T2, RUNX1-BCR protein (Homo sapiens, UniProt P11274+Q01196).
T2 construct: replacing the NHR2 domain of the construct with the homologous BCR tetramerization domain (RUNX1-BCR protein); His6 (C); made in house; host or cells: E. coli BL21(DE3)
T2 sequence (Q01196+P11274 fused): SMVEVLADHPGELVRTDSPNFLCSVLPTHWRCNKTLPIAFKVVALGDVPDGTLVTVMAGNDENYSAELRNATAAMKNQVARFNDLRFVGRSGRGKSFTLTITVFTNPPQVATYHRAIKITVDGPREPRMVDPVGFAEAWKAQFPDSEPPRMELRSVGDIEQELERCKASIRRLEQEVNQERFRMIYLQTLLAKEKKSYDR
The assay can be described thus: ABCD (avidin, biotin, complex, DNA) assay with RUNX1-BCR protein. Format: biochemical. The conditions noted are these: relative inhibition at 1 mM inhibitor concentration; RUNX1-BCR; read-out: ABCD Inhibition [%] BCR. The protocol: as §1

T1 sequence (Q01196+Q06455 fused): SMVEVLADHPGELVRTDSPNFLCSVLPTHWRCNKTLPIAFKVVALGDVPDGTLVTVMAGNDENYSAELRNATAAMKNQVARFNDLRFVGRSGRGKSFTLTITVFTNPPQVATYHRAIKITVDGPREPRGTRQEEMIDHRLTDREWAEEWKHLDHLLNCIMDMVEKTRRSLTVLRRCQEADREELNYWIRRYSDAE

`Cc1c(C(=O)O)[nH]c(/C=C/C(=O)O)nc1=O` [Compound 7.38, (E)-2-(2-carboxyvinyl)-5-methyl-6-oxo-3,6-dihydropyrimidine-4-carboxylic acid, reference compound]: in the assay with SKNO-1 cells [1], the “tumor growth (tumor volume) of transplanted SKNO-1 cells” value is “small reduction”. For the same compound, in the assay on SKNO-1 cells [2], the “increase of the CD11b expression in SKNO-1 cells” value turned out to be 2%. The inhibition (as a rule, how much of the control response was suppressed) at 1000 µM on RUNX1-NHR2 protein [3] stood at 20.1%; on RUNX1-BCR protein, 26.1%. Further, the “inhibition of tetramer-dependent binding of the RUNX1-NHR2 protein to immobilized RUNX3 oligonucleotide, ELISA” value at RUNX1-NHR2 protein [4] ([P1]=500 μM and [PPIM]=2000 μM in ELISA) is “not”. Further, at RUNX1-NHR2 protein [4] (inhibition of tetramerization of the RUNX1-NHR2 protein), the IC50 – broadly, the concentration needed to halve the response being measured – was above 2000 µM. At RUNX1-NHR2 protein [4] (measured at 2 mM concentration, RUNX1-NHR2 protein, read-out: ELISA Inhibition [%] NHR2), the inhibition at 2000 µM turned out to be 4%. The “proliferation of SKNO-1 cells (XTT assay)” value with SKNO-1 cells [5] is “did not affect”.

For the origin of these results see US20180230143A1, “INHIBITORS OF NHR2 AND/OR RUNX1/ETO-TETRAMERIZATION” (Heinrich-Heine-Universität Düsseldorf, priority 2013, published 2018).
